Columns and labels:
adhesion formation = assay: Ischemic button model of intraabdominal adhesion formation, adhesion scoring on postoperative day 7; assay type: in vivo, Male Wistar rats; conditions: for % Reduction (of adhesion formation vs control) / Mean adhesion formation (percentage of ischemic buttons with attached adhesions): rats, single intra-operative intraperitoneal dose (SAHA 50 mg/kg, MS-275 10 mg/kg); for % Reduction (of adhesion formation vs control): postoperative day 7; for Mean adhesion formation (percentage of ischemic buttons with attached adhesions): scored postoperative day 7, N=6; for treatment of surgical adhesions (result in words): single intra-operative dose, FIG. 4
Protocol: (§1) The surgical procedure described in Chu et al. (Surgery, 2011, 149(6): 801-812), content of which is herein incorporated by reference in its entirety, was used to test the HDAC inhibitors discussed herein. […] Adhesions were induced on the day of operation using our previously described ischemic button model. Animals were killed on postoperative day 7 for adhesion scoring. The effect of the HDAC inhibitors on intestinal wound healing was measured using colonic anastomotic burst pressures.
Male Wistar rats (range, 200-225 g; Charles River Laboratories, Wilmington, Mass.) warehoused at constant room temperature and under 12-hour light/12-hour dark cycles and allowed access to food and water ad libitum. The Institutional Animal Care and Use Committee at the Boston University School of Medicine approved this study, and all procedures described were performed in accordance with recommendations outlined in the Guide for the Care and Use of Laboratory Animals: Eighth Edition (NRC 2011) published by the National Academies of Science.
Intraperitoneal ischemic buttons were created as described in Reed et al. (J. Surgical Res., 2002, 108:165-172), content of which is herein incorporated by reference in its entirety. In brief, after a midline laparotomy, 6 ischemic buttons (3 on each side) were created by ligating 5 mm of parietal peritoneum with 4-0 silk suture. Adhesion formation was quantified in a blinded fashion on postoperative day 7 by scoring the percentage of buttons with attached fibrinous adhesions in each rat. For example, an animal that had adhesions attached to 4 of its 6 ischemic buttons received a score of 66%.

[1] = test system: anastomotic wound healing; assay: Colonic anastomotic burst pressure (intestinal wound healing); assay type: in vivo, Male Wistar rats; conditions: 50 mg/kg intraperitoneally, single intra-op dose, at 7 days, FIG. 3B
Protocol: as §1
In the final experiment, the inventors tested the effects of intraperitoneal HDAC inhibitors on anastomotic wound healing. Male Wistar rats were randomized to operative controls (OP Control) or operative treatment with HDAC inhibitor as noted in the figure. […] In brief, after laparotomy and division of the distal colon, an end-to-end colonic anastomosis was created using a single running layer of 7-0 polypropylene suture. Animals were killed 7 days postoperatively and, after removing a 4-cm segment containing the anastomosis, the segment underwent measurements of burst pressure as described in Aarons et al. (Annals of Surgery, 2007, 245(2): 176-184), content of which is incorporated herein by reference in its entirety.

Structure (SMILES)	% Reduction (of adhesion formation vs control) (adhesion formation)	Mean adhesion formation (percentage of ischemic buttons with attached adhesions) (adhesion formation)	treatment of surgical adhesions (result in words) (adhesion formation)	adhesion formation (adhesion formation; 25 mg/kg, three doses (pre-op, intra-op and pre-op), FIG. 2A)	adhesion formation (adhesion formation; 50 mg/kg intraperitoneally, 3 doses (24 hr pre-op, intra-op, 24 hrs post-op), at 7 days, FIG. 1B)	adhesion formation (adhesion formation; 50 mg/kg intraperitoneally, single intra-op dose, at 7 days, FIG. 2A)	adhesion formation (adhesion formation; 100 mg/kg intraperitoneally, 3 doses (24 hr pre-op, intra-op, 24 hrs post-op), at 7 days, FIG. 1A)	adhesion formation (adhesion formation; 200 mg/kg intraperitoneally, 3 doses (24 hr pre-op, intra-op, 24 hrs post-op), FIG. 1A)	anastomotic wound healing (burst pressure) [1]
Nc1ccccc1NC(=O)c1ccc(CNC(=O)OCc2cccnc2)cc1 [MS-275]	45.16%	47.2222%	effective	–	–	–	–	–	–
O=C(CCCCCCC(=O)Nc1ccccc1)NO [SAHA, suberoylanlide hydroxamic acid]	48.39%	44.4444%	effective	–	–	–	–	–	–
CCCC(CCC)C(=O)O [valproic acid]	–	–	–	effective	significantly reduced	significantly reduced	significantly reduced	effective	did not affect
